target: T1, human GLP-1 receptor (Homo sapiens, UniProt P43220); test: GLP-1R cAMP Assay; format: cell-based; settings: cAMP accumulation in CHO cells stably overexpressing the human GLP-1 receptor; 30 min treatment; HitHunter cAMP kit; read-out: EC50
T1 construct: expressed in transfected cells
Summary of the method: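 CHO cells stably overexpressing human GLP-1R, 10,000 cells/well, treated with compound in 20-point dose response in triplicate for 30 min. cAMP accumulation read by enzyme-complementation luminescence after lysis and overnight incubation; dose-response curves fitted.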

T1 sequence (P43220 24-463): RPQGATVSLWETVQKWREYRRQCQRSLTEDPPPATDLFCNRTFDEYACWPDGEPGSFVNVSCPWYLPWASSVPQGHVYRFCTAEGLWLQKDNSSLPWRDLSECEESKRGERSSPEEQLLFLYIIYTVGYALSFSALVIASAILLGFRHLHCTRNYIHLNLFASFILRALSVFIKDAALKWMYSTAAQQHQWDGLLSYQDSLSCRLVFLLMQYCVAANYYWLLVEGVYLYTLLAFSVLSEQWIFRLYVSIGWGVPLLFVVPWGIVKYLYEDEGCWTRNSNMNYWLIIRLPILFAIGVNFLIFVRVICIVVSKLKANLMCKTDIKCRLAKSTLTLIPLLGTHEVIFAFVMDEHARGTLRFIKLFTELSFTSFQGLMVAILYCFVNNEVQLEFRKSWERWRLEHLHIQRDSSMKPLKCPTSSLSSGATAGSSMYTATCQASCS

`N#Cc1ccc(OCc2ccc(F)c(OC3CCN(Cc4nc5ccc(C(=O)O)cc5n4C[C@@H]4CCO4)CC3)n2)c(F)c1` [Example 330, (S)-2-((4-((6-((4-Cyano-2-fluorophenoxy)methyl)-3-fluoropyridin-2-yl)oxy)piperidin-1-yl)methyl)-1-(oxetan-2-ylmethyl)-1H-benzo[d]imidazole-6-carboxylic acid] and `N#Cc1ccc(OCc2cccc(OC3CCN(Cc4nc5c(F)cc(C(=O)O)cc5n4C[C@@H]4CCO4)CC3)c2)c(F)c1` [Compound 309] cannot be ordered by EC50: less than 50 nM for the first, less than 50 nM for the second.

First: CCn1cncc1Cn1c(CN2CCN(C(=O)c3ccc(COc4ccc(Cl)cc4Cl)s3)CC2)nc2ccc(C(=O)O)cc21 [Compound 71, 2-[(4-{5-[(2,4-dichlorophenoxy)methyl]thiophene-2-carbonyl}piperazin-1-yl)methyl]-1-[(1-ethyl-1H-imidazol-5-yl)methyl]-1H-1,3-benzodiazole-6-carboxylic acid]
Second: CCn1cncc1Cn1c(CN2CCN(C(=O)c3cnc(COc4ccc(Cl)cc4Cl)o3)CC2)nc2ccc(C(=O)O)cc21 [Compound 156, 2-[(4-{2-[(2,4-dichlorophenoxy)methyl]-1,3-oxazole-5-carbonyl}piperazin-1-yl)methyl]-1-[(1-ethyl-1H-imidazol-5-yl)methyl]-1H-1,3-benzodiazole-6-carboxylic acid]
The EC50 of the first is higher: greater than 500 nM for the first, less than 50 nM for the second.

First: Cc1ccc(N(C)c2cccc(C(=O)N3CCN(Cc4nc5ccc(C(=O)O)cc5n4C[C@@H]4CCO4)CC3)c2)c(C)c1 [Compound 45, 2-[(4-{3-[(2,4-dimethylphenyl)(methyl)amino]benzoyl}piperazin-1-yl)methyl]-1-{[(2S)-oxetan-2-yl]methyl}-1H-1,3-benzodiazole-6-carboxylic acid]
Second: Cc1ccc(N(C)c2cccc(C(=O)N3CCN(Cc4nc5ccc(C(=O)O)cc5n4C[C@@H]4CCO4)CC3)n2)c(Cl)c1 [Compound 101, 2-[(4-{6-[(2-chloro-4-methylphenyl)(methyl)amino]pyridine-2-carbonyl}piperazin-1-yl)methyl]-1-{[(2S)-oxetan-2-yl]methyl}-1H-1,3-benzodiazole-6-carboxylic acid]
The EC50 of the first is lower: less than 50 nM for the first, 50 to 500 nM for the second.

`CCn1cncc1Cn1c(CN2CCC(Oc3cccc(COc4ccc(Cl)cc4Cl)c3)CC2)nc2ccc(C(=O)O)cc21` [Example 157, 2-((4-(3-((2,4-Dichlorophenoxy)methyl)phenoxy)piperidin-1-yl)methyl)-1-((1-ethyl-1H-imidazol-5-yl)methyl)-1H-benzo[d]imidazole-6-carboxylic acid] and `O=C(O)c1ccc2nc(CN3CCC(Oc4cccc(COc5ccc(Cl)cc5Cl)c4)CC3)n(C[C@@H]3CCO3)c2c1` [Compound 174, 2-[(4-{3-[(2,4-dichlorophenoxy)methyl]phenoxy}piperidin-1-yl)methyl]-1-{[(2S)-oxetan-2-yl]methyl}-1H-1,3-benzodiazole-6-carboxylic acid] cannot be ordered by EC50: less than 50 nM for the first, less than 50 nM for the second.

`N#CCC1(Cn2c(CN3CCC(Oc4ccnc(COc5ccc(F)cc5Cl)n4)CC3)nc3ccc(C(=O)O)cc32)CC1` [Compound 325] and `C[C@H]1C[C@@H](Oc2ccnc(COc3ccc(C#N)cc3F)n2)CCN1Cc1nc2ccc(C(=O)O)cc2n1C[C@H]1CCOC1` [Compound 515, 2-{[(2S,4S)-4-({2-[(4-cyano-2-fluorophenoxy)methyl]pyrimidin-4-yl}oxy)-2-methylpiperidin-1-yl]methyl}-1-{[(3R)-oxolan-3-yl]methyl}-1H-1,3-benzodiazole-6-carboxylic acid] cannot be ordered by EC50: less than 50 nM for the first, less than 50 nM for the second.

Compared with `COC(=O)c1ccc2nc(CN3CCN(C(=O)c4cccc(Oc5ccc(C)cc5Cl)c4)CC3)n(C[C@@H]3CCO3)c2c1` [Compound 23, methyl 2-({4-[3-(2-chloro-4-methylphenoxy)benzoyl]piperazin-1-yl}methyl)-1-{[(2S)-oxetan-2-yl]methyl}-1H-1,3-benzodiazole-6-carboxylate], `C[C@H]1C[C@@H](Oc2ccnc(COc3ccc(C#N)cc3Cl)c2)CCN1Cc1nc2ccc(C(=O)O)cc2n1C[C@@H]1CCO1` [Compound 366] is lower in EC50: greater than 500 nM for the first, less than 50 nM for the second.

— patent publication US20230089073A1 (Carmot Therapeutics, Inc., priority 2021, published 2023)
